Laboratory results taken from ChEMBL document CHEMBL4359843, “Linear and Rationally Designed Stapled Peptides Abrogate TLR4 Pathway and Relieve Inflammatory Symptoms in Rheumatoid Arthritis Rat Model” (J Med Chem, 2019).
The source made the active and inactive calls. No cut-off for these calls is given here. Where a SMILES comes first, the peptide text is derived from it. Bridges are numbered along the chain shown (N, C = ends).

What was measured:
[1] = biological target: T1, Toll-like receptor 4 (Homo sapiens, UniProt O00206); assay: Antagonist activity at TLR4 in human THP1 cells assessed as reduction in LPS-induced NFkappaB p65 phosphorylation at 50 uM after 15 to 30 mins by Western blot analysis; assay type: cell-based
[2] = biological target: T1, Toll-like receptor 4; assay: Antagonist activity at TLR4 in human THP1 cells assessed as reduction in LPS-induced ERK phosphorylation at 50 uM after 15 to 30 mins by Western blot analysis; assay type: cell-based
[3] = biological target: T2, Toll-like receptor 4 (Mus musculus) (UniProt Q9QUK6); assay: Antagonist activity at TLR4 in mouse RAW264.7 cells assessed as reduction in LPS-induced IFNbeta secretion at 5 to 50 uM after 24 hrs by ELISA; assay type: cell-based
T2 sequence (whole entry): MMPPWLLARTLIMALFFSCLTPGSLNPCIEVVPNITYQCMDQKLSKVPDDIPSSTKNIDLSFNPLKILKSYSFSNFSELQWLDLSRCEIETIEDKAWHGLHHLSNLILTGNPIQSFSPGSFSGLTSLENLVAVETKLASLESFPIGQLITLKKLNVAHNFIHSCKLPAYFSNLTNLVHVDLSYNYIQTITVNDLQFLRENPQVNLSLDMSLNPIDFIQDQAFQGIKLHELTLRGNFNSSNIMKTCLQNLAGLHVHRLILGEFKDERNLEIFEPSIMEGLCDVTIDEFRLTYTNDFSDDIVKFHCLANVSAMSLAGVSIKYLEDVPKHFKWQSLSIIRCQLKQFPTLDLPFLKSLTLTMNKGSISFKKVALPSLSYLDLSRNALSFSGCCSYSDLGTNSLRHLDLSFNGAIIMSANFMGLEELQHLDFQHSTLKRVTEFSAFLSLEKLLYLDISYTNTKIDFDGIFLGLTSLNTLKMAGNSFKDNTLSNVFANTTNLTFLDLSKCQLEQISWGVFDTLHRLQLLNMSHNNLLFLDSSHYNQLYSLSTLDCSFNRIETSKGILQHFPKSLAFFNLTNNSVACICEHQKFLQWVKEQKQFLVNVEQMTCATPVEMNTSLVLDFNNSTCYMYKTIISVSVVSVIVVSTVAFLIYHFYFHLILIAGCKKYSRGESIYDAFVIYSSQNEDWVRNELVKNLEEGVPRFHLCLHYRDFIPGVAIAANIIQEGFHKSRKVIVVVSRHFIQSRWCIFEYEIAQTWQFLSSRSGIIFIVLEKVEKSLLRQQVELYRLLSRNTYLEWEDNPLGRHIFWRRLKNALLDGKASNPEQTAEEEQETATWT

[4] = biological target: TLR7 and TLR8 (Homo sapiens) (UniProt Q9NYK1+Q9NR97); assay: Antagonist activity at TLR7/8 in human THP1 cells assessed as reduction in R848-induced IL6 secretion at 50 uM after 24 hrs by ELISA; assay type: cell-based
[5] = biological target: T1, Toll-like receptor 4; assay: Antagonist activity at TLR4 in human THP1 cells assessed as reduction in LPS-induced ATF3 activation at 50 uM after 120 to 240 mins by Western blot analysis; assay type: cell-based
[6] = Effect on SEAP activity in HEK-Blue cells harboring human TLR4 at 20 to 80 uM after 1 hr by SEAP assay; assay type: ADME, cell-based
[7] = biological target: T2, Toll-like receptor 4 (Mus musculus); assay: Antagonist activity at TLR4 in mouse RAW264.7 cells assessed as reduction in LPS-induced NFkappaB p65 phosphorylation at 80 uM preincubated for 1 hr followed by LPS stimulation and measured after 30 mins by Alexafluor-488/Hoechst 33258 staining based immunofluorescence confocal microscopic method; assay type: cell-based
[8] = biological target: T3, Toll-like receptor 9 (Mus musculus) (UniProt Q9EQU3); assay: Antagonist activity at TLR9 in mouse RAW264.7 cells assessed as reduction in CpG ODN-induced TNFalpha secretion at 20 to 80 uM after 24 hrs by ELISA; assay type: cell-based
T3 sequence (whole entry): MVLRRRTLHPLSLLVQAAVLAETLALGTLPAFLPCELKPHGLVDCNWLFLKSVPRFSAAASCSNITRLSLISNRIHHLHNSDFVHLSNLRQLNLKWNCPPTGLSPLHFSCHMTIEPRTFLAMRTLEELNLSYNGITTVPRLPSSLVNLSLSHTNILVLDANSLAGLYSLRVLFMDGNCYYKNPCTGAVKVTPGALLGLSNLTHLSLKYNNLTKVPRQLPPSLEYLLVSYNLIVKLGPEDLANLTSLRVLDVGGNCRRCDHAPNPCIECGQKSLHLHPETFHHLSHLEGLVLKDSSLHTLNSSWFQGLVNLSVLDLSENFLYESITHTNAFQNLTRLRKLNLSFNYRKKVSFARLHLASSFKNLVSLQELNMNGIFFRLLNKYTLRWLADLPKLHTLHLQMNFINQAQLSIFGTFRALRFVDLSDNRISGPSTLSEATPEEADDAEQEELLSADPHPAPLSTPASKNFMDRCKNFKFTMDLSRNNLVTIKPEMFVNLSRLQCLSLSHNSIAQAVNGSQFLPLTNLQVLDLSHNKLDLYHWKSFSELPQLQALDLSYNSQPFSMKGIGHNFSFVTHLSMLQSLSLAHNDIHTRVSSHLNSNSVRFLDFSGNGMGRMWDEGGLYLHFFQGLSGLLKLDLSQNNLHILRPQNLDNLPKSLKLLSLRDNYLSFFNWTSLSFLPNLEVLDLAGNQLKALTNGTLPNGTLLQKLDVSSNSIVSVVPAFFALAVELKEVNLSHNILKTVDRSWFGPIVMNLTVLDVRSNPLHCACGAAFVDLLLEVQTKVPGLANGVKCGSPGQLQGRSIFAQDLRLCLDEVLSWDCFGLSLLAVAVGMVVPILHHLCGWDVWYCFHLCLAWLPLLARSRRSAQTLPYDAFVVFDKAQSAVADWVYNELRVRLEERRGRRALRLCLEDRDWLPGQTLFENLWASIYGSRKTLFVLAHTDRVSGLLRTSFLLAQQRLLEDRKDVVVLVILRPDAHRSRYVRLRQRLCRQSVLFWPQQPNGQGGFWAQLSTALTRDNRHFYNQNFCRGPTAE

[9] = biological target: T1, Toll-like receptor 4; assay: Antagonist activity at TLR4 in human PBMC cells assessed as reduction in LPS-induced ERK phosphorylation at 80 uM after 15 to 30 mins by Western blot analysis; assay type: cell-based
[10] = biological target: Toll-like receptor 1/2 (Homo sapiens) (UniProt O60603+Q15399); assay: Antagonist activity at TLR2/1 in human PBMC cells assessed as reduction in PAM3CSK4-induced IL6 secretion at 20 to 80 uM after 24 hrs by ELISA; assay type: cell-based
[11] = tested on: RAW264.7; assay: Cytotoxicity against mouse RAW264.7 cells assessed as reduction in cell viability at 20 to 80 uM after 24 hrs by MTT assay; assay type: cell-based; conditions: raw264.7, 24 h
[12] = biological target: T1, Toll-like receptor 4; assay: Antagonist activity at TLR4 in human PBMC cells assessed as reduction in LPS-induced JNK phosphorylation at 80 uM after 15 to 30 mins by Western blot analysis; assay type: cell-based
[13] = biological target: T1, Toll-like receptor 4; assay: Antagonist activity at human TLR4 expressed in HEK-Blue cells assessed as reduction in LPS-induced SEAP activity pre-incubated for 1 hr followed by LPS stimulation and measured after 24 hrs by SEAP assay; assay type: cell-based

T1 sequence (O00206 whole entry): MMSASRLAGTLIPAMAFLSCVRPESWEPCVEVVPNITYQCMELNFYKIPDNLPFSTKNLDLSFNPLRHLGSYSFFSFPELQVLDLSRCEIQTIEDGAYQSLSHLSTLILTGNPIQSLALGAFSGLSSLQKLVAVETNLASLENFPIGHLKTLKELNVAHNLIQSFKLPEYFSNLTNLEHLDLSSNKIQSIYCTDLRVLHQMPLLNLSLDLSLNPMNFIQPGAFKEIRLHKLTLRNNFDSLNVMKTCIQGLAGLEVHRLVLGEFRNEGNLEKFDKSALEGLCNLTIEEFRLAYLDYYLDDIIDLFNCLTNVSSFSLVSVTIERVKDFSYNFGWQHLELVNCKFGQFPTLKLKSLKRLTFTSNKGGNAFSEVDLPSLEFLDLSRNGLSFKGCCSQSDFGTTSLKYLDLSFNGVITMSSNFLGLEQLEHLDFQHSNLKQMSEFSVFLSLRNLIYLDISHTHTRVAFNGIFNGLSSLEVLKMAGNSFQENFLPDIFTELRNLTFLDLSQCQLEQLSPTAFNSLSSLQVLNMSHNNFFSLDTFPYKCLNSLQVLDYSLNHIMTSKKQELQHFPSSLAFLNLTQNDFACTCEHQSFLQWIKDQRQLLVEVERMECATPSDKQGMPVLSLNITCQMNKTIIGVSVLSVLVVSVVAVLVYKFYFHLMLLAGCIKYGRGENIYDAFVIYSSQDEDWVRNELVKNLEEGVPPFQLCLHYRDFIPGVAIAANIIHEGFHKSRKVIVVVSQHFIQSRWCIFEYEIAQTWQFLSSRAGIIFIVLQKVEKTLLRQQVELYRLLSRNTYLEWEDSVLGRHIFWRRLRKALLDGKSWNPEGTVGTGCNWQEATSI

For CC[C@H](C)[C@@H]1NC(=O)[C@H](Cc2c[nH]c3ccccc23)NC(=O)[C@H](Cc2c[nH]c3ccccc23)NC(=O)[C@@H](NC(=O)[C@H](CO)NC(=O)[C@H](Cc2ccccc2)NC(=O)[C@@H](NC(=O)CNC(=O)[C@@H](N)CC(C)C)C(C)C)CC(=O)NCCCC[C@@H](C(=O)N[C@@H](CC(C)C)C(=O)N[C@H](C(=O)O)C(C)C)NC1=O (H-LGVFSDWWIKLV-OH; lactam 6-10), the Activity [1] was “Active”, the Activity [2] was “Active” and the Activity [3] was “Active”. For the same molecule, the Activity [4] was “Active” and the Activity [5] was “Active”.

In the case of H-LGVFSSWWIKLV-OH, the Activity [6] is reported as “Non-Toxic”, the Activity [7] is reported as “Active” and the Activity [8] is reported as “inactive”. The Activity [9] was “Active”, the Activity [10] was “inactive” and the Activity [11] was “Non-Toxic”. For the same molecule, the Activity [12] was “Active” and the Activity [13] was “Dose-dependent effect”.
